# ChEMBL document CHEMBL5338725, “New Glucosamine-Based TLR4 Agonists: Design, Synthesis, Mechanism of Action, and In Vivo Activity as Vaccine Adjuvants” (J Med Chem, 2023)
# Active and inactive are the calls of the source. The calls are words filed in the database; no cut-off is given here.
# Key:
# [1] = test system: THP1-Xblue; test: Activation of NF-KappaB/AP-1 signalling pathway in PMA-differentiated human THP-1 X-blue cells assessed as induction of SEAP release at 0.1 to 25 uM incubated for 18 hrs by QUANTI-Blue assay; assay type: cell-based; conditions: dose 0.1-25 µM
# [2] = target: Toll-like receptor 4 (Homo sapiens) (UniProt O00206); test: Activation of TLR4 in PMA-differentiated human THP1-Xblue cells assessed as induction of IL-1beta release incubated for 6 hrs by ELISA method; assay type: cell-based; conditions: filed as activator, dose 0.1-25 µM
# Toll-like receptor 4 (Homo sapiens), sequence (O00206 whole entry, the tested form may be a part): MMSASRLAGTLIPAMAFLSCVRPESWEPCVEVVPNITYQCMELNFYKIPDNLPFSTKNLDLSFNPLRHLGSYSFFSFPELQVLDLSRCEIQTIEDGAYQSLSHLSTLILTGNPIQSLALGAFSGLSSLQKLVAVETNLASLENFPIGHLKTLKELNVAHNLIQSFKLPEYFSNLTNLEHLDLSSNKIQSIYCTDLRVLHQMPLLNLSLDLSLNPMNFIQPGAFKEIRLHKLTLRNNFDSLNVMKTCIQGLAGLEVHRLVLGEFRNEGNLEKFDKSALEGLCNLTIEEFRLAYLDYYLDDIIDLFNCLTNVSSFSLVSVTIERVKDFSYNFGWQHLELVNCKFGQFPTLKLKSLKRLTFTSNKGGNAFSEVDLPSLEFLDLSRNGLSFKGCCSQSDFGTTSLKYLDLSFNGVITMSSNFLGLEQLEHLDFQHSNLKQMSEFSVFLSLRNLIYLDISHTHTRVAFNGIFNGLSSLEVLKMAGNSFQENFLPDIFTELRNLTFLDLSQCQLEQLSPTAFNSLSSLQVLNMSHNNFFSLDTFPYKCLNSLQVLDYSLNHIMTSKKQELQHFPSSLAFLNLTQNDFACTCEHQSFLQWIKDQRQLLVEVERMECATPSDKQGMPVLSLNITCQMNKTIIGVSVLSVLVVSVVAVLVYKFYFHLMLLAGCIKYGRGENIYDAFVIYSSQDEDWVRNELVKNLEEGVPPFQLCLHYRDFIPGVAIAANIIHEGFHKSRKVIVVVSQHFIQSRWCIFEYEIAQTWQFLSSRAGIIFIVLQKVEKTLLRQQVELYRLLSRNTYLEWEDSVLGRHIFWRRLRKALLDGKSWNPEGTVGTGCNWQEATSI
# [3] = test system: PBMC; test: Cytotoxicity against human PBMC cells assessed as reduction in cell viability at 0.1 to 25 uM incubated for 18 hrs by MTT assay; assay type: toxicity, cell-based; conditions: dose 0.1-25 µM
# [4] = target: Toll-like receptor 4 (Homo sapiens) (UniProt O00206); test: Agonist activity at TLR4 in human PBMC assessed as induction of IL-1beta production incubated for 6 hrs by ELISA method; assay type: cell-based; conditions: filed as agonist, dose 10-25 µM
# [5] = target: Toll-like receptor 4 (Homo sapiens) (UniProt O00206); test: Agonist activity at TLR4 in human PBMC assessed as induction of TNF production incubated for 6 hrs by ELISA method; assay type: cell-based; conditions: filed as agonist, dose 10-25 µM
# [6] = target: Toll-like receptor 4 (Homo sapiens) (UniProt O00206); test: Activation of TLR4 in PMA-differentiated human THP1-Xblue cells assessed as induction of IL-6 secretion at 0.1 to 25 uM by incubated for 6 hrs ELISA method; assay type: cell-based; conditions: dose 0.1-25 µM
# [7] = target: Toll-like receptor 4 (Homo sapiens) (UniProt O00206); test: Agonist activity at human TLR4 in HEK-Blue hTLR4 cells at 0.1 to 25 uM incubated for 18 hrs by SEAP reporter gene based Quanti-blue assay; assay type: cell-based; conditions: filed as agonist, dose 0.1-25 µM
# [8] = Cytotoxicity against PMA-differentiated human THP1-Xblue cells assessed as reduction in cell viability at 0.1 to 25 uM incubated for 18 hrs by MTT assay; assay type: toxicity, cell-based; conditions: dose 0.1-25 µM
# [9] = target: Toll-like receptor 4 (Homo sapiens) (UniProt O00206); test: Activation of TLR4 in PMA-differentiated human THP1-Xblue cells assessed as induction of TNFalpha release at 25 uM incubated for 6 hrs by ELISA method; assay type: cell-based; conditions: filed as activator
# [10] = test system: Mus musculus; test: Immuno-adjuvant activity in OVA immunized C57BL/6J mouse model assessed as anti-OVA […] antibody production at 10 ug, sc administered on day 0 and as booster dose on day 21 and measured after 42 days by ELISA; assay type: functional, organism-based; conditions: dose 10.0 µg, time 42.0 day
# [11] = test system: Mus musculus; test: Immuno-adjuvant activity in OVA immunized C57BL/6J mouse model assessed as increase in anti-OVA IgG1 antibody at 10 ug, sc administered on day 0 and as booster dose on day 21 and measured after 42 days by ELISA; assay type: functional, organism-based; conditions: dose 10.0 µg, time 42.0 day
# [12] = test system: Mus musculus; test: Immuno-adjuvant activity in OVA immunized C57BL/6J mouse model assessed as increase in anti-OVA IgG2c antibody at 10 ug, sc administered on day 0 and as booster dose on day 21 and measured after 42 days by ELISA; assay type: functional, organism-based; conditions: dose 10.0 µg, time 42.0 day
# [13] = test system: Mus musculus; test: Immuno-adjuvant activity in OVA immunized C57BL/6J mouse model assessed as increase in anti-OVA IgG2b antibody at 10 ug, sc administered on day 0 and as booster dose on day 21 and measured after 42 days by ELISA; assay type: functional, organism-based; conditions: dose 10.0 µg, time 42.0 day
# [14] = test system: HEK-Blue hTLR4; test: Agonist activity at human TLR4 in HEK-Blue hTLR4 cells at 100 ng/ml incubated for 18 hrs by SEAP reporter gene based Quanti-blue assay; assay type: cell-based; conditions: filed as agonist
# [15] = target: Toll-like receptor 4 (Homo sapiens) (UniProt O00206); test: Activation of TLR4 in PMA-differentiated human THP1-Xblue cells assessed as induction of IL-1beta release at 25 uM by incubated for 6 hrs ELISA method; assay type: cell-based; conditions: filed as activator
# [16] = target: NACHT, LRR and PYD domains-containing protein 3 (Homo sapiens) (UniProt Q96P20); test: Activation of NLRP3 inflammasome in PMA-differentiated human THP1-Xblue cells assessed as IL-1beta production at 25 uM preincubated for 1 hr with MCC950 followed by compound addition and measured after 6 hrs by ELISA method; assay type: cell-based
# NACHT, LRR and PYD domains-containing protein 3 (Homo sapiens), sequence (Q96P20 whole entry, the tested form may be a part): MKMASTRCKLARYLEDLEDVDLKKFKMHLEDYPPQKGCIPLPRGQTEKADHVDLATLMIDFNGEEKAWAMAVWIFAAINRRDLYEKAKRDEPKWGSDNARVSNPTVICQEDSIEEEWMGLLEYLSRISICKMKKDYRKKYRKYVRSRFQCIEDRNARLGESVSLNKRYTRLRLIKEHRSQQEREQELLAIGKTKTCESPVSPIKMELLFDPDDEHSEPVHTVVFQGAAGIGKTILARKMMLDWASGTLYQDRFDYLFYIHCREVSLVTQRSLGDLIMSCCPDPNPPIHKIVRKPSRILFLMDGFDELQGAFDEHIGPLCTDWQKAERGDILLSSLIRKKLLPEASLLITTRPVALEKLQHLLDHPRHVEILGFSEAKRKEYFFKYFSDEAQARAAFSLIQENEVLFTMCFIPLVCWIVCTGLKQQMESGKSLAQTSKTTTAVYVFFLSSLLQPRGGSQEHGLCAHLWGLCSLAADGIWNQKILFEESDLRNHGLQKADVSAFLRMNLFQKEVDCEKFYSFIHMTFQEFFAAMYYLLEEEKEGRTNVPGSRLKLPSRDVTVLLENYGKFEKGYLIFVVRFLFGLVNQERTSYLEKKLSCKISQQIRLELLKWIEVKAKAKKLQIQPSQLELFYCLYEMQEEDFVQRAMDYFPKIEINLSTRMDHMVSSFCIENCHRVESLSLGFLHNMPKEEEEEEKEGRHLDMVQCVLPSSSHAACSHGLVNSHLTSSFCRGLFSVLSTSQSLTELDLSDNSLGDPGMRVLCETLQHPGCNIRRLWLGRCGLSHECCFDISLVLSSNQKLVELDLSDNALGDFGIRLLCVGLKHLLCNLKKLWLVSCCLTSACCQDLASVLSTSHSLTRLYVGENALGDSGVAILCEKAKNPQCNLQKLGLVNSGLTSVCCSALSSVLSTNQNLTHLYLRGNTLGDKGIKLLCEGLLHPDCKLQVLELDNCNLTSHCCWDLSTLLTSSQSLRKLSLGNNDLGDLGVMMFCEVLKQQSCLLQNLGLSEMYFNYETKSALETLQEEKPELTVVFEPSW
# [17] = test system: Mus musculus; test: Immuno-adjuvant activity in OVA immunized C57BL/6J mouse model assessed as increase in anti-OVA IgG antibody at 10 ug, sc administered on day 0 and as booster dose on day 21 and measured on day 42 by ELISA; assay type: functional, organism-based; conditions: dose 10.0 µg
# [18] = test system: THP1-Xblue; test: Activation of NF-kappaB pathway in PMA-differentiated human THP1-Xblue cells assessed p65 translocation from cytosol to nucleus at 25 uM incubated for 4 hrs by immunofluorescence analysis; assay type: cell-based
# [19] = test system: RAW-Blue; test: Activation of NF-kappaB/AP-1 transcriptional activity in mouse RAW-Blue cells at 0.1 uM incubated for 18 hrs by quanti-blue/SEAP-based spectrophotometry analysis; assay type: cell-based; conditions: filed as activator
# [20] = test system: THP1-Xblue; test: Activation of NF-kappaB/AP-1 transcriptional activity in human THP1-Xblue cells at 10 uM incubated for 18 hrs by quanti-blue/SEAP-based spectrophotometry analysis; assay type: cell-based; conditions: filed as activator
# [21] = target: MAP kinase p38 (Homo sapiens) (UniProt O15264+Q15759+Q16539+P53778); test: Activation of p38 MAPK phosphorylation in PMA-differentiated human THP1-Xblue cells at 25 uM incubated for 1.5 to 2.5 hrs by Western blot analysis; assay type: cell-based; conditions: filed as activator, time 1.5-2.5 hrs
# [22] = test system: THP1-Xblue; test: Activation of […] in PMA-differentiated human THP1-Xblue cells assessed as p-IRF3 translocation from cytosol to nucleus at 25 uM measured after 2 to 4 hrs by immunofluorescence analysis; assay type: cell-based; conditions: time 2-4 hrs
compound,measurement,setting,value
CCCCCCCCCCCC(=O)N[C@H]1[C@@H](OC(=O)CCCCCCCCCCC)O[C@H](CO)[C@@H](OP(=O)(O)O)[C@@H]1OC(=O)CCCCCCCCCCC,Activity,[1],inactive
CCCCCCCCCCCCCC(=O)O[C@@H]1O[C@H](CO)[C@@H](OP(=O)([O-])[O-])[C@H](OC(=O)CCCCCCCCCCCCC)[C@H]1NC(=O)CCCCCCCCCCC.[Na+].[Na+],Activity,[2],Dose-Dependent Effect
same,Activity,[3],Non-Toxic
same,Activity,[4],Dose-Dependent Effect
same,Activity,[5],Dose-Dependent Effect
same,Activity,[6],inactive
same,Activity,[7],Active
same,Activity,[8],Non-Toxic
same,Activity,[9],Active
CCCCCCCCCCCC(=O)N[C@H]1[C@@H](OP(=O)(O)O)O[C@H](CO)[C@@H](OC(=O)CCCCCCCCCCC)[C@@H]1OC(=O)CCCCCCCCCCC,Activity,[10],inactive
same,Activity,[11],inactive
same,Activity,[12],inactive
same,Activity,[13],inactive
CCCCCCCCCCCC(=O)N[C@H]1[C@H](OC(=O)CCCCCCCCC)O[C@H](CO)[C@@H](OP(=O)([O-])[O-])[C@@H]1OC(=O)CCCCCCCCC.[Na+].[Na+],Activity,[7],Active
same,Activity,[8],Non-Toxic
CCCCCCCCCCCCCC(=O)N[C@H]1[C@H](OC(=O)CCCCCCCCCCCCC)O[C@H](CO)[C@@H](OP(=O)([O-])[O-])[C@@H]1OC(=O)CCCCCCCCCCCCC.[Na+].[Na+],Activity,[7],Active
same,Activity,[8],Non-Toxic
CCCCCCCCCCCCCC(=O)O[C@H](CCCCCCCCCCC)CC(=O)N[C@H]1[C@H](OC[C@H]2O[C@H](O)[C@H](NC(=O)C[C@H](O)CCCCCCCCCCC)[C@@H](OC(=O)C[C@H](O)CCCCCCCCCCC)[C@@H]2O)O[C@H](CO)[C@@H](OP(=O)(O)O)[C@@H]1OC(=O)C[C@@H](CCCCCCCCCCC)OC(=O)CCCCCCCCCCCCC,Activity,[12],Active
same,Activity,[13],inactive
same,Activity,[14],Active
CCCCCCCCCCCC(=O)N[C@H]1[C@H](OC(=O)CCCCCCCCCCC)O[C@H](CO)[C@@H](OP(=O)([O-])[O-])[C@@H]1OC(=O)CCCCCCCCCCC.[Na+].[Na+],Activity,[10],inactive
same,Activity,[15],Active
same,Activity,[2],Dose-Dependent Effect
same,Activity,[16],inactive
same,Activity,[17],Active
same,Activity,[3],Non-Toxic
same,Activity,[11],Active
same,Activity,[4],Dose-Dependent Effect
same,Activity,[5],Dose-Dependent Effect
same,Activity,[18],inactive
same,Activity,[6],inactive
same,Activity,[7],Active
same,Activity,[13],inactive
same,Activity,[19],Active
same,Activity,[9],Active
same,Activity,[20],Active
same,Activity,[21],Active
same,Activity,[22],inactive
